Assay results from patent US9669003B2, “Use of flavone and flavanone derivatives in preparation of sedative and hypnotic drugs” (priority 2012, dated 2017).
Marks after values point to notes of the source that are not given here.

Experiments:
Assay type in all cases: in vivo
Kunming mice [1] = test: Influence on hypnosis effect with pentobarbital sodium doses below the threshold (25 mg/kg i.p.); conditions: pentobarbital sodium 25 mg/kg i.p. 60 min later, sleep observed in 30 min, n = 10
From the text: (§1) 1.1 Animals for experiments: Kunming mice, weighting 18.9˜22.2 g for females, and 20.2˜23.0 g for males, licensed under SCXK-(Ji) 2007-0003, and provided by The experimental animal centre, Jilin University.
(§2) 1.2 Chemicals for experiments: The flavone derivatives provided in Examples 1-41 and the flavanone derivatives provided in Examples 42-71 are all formulated with 0.5% sodium carboxymethyl cellulose as solutions with required concentrations.
(§3) 1.3 Grouping of animals: 6420 animals are employed in the entire experiments and 2140 of the animals are randomly divided into 214 groups by gender, and the […] include: control group, low dosage group for each experimental drugs (25 mg/kg), medium dosage group for each experimental drugs (50 mg/kg), and high dosage group for each experimental drugs (100 mg/kg). Each group has 10 animals and either female or male constitutes half of the group. The groups are used in behavior observation and voluntary action observation. The other 4280 animals are randomly divided into 214 groups by gender respectively (the grouping way is the same with that described above). Each group has 20 animals and either female or male constitutes half of the group. In each group, 10 animals are used in hypnosis experimentations with pentobarbital sodium doses below the threshold, and the other 10 animals are used hypnosis experimentations with pentobarbital sodium doses at the threshold.
1.5.3 Influence on Hypnosis Effect with Mice Pentobarbital Sodium Doses Below the Threshold
The drug is intragastric administered in mice for single time, 2 animals of each group are given drug per round with the dosing interval of 40 min (±5 min). According to the administration round, in 60 min (±5 min) of each round after the drug administration, the animals were intraperitoneally injected 0.3% sodium pentobarbital 25 mg/kg, respectively. Sleep condition of the animals were observed within 30 min (under sleep determination standard of loss of righting reflex more than 1 min). After animals undergo loss of righting reflex, number of the animals is recorded, to calculate sleep percentage.
(§4) Number of autonomic activities is detected by leneve Test for homogeneity of variance. If the homogeneity of variance is good (P>0.05), statistical analysis is performed with ANOVA. If ANOVA have statistical significance (P≦0.05), Dunnett's test for multiple comparisons analysis is performed. Number of animals of sleeping mice is applied of ANOVA. Incidence rate of animal asleep is applied of χ2 test. Sleep latency and sleep duration are recorded in min, averaged by group, represented by standard deviation, and undergo statistical analysis using ANOVA.

Kunming mice [2] = test: Influence on hypnosis effect with pentobarbital sodium doses at the threshold (50 mg/kg i.p.); conditions: pentobarbital sodium 50 mg/kg i.p. 60 min later, x ± s, n = 10
From the text: as §1, §2, §3
1.5.4 Influence on Hypnosis Effect with Mice Pentobarbital Sodium Doses at the Threshold
The drug is intragastric administered in mice for single time, 2 animals of each group are given drug per round with the dosing interval of 40 min (±5 min). According to the administration round, in 60 min (±5 min) of each round after the drug administration, the animals were intraperitoneally injected 0.3% sodium pentobarbital 50 mg/kg, respectively. Time to fall asleep (sleep latency) and sleep duration of the animals were recorded within under sleep determination standard of loss of righting reflex more than 1 min.
as §4

Kunming mice [3] = test: Influence on autonomic activity of normal mice (ZIL-2 mice autonomic activity meter, counts within 10 min); conditions: intragastric, x ± s, n = 10; for Times of activities in 1 h after drug administration/10 min: 1 h after administration; for Times of activities in 2 h after drug administration/10 min: 2 h after administration; for Times of activities in 24 h after drug administration/10 min: 24 h after administration
From the text: as §1, §2, §3
1.4 Experimental instrument and agents: ZIL-2 mice autonomic activity meter, production of Institute of Materia Medica of Chinese Academy of Medical Sciences; pentobarbital sodium, Lot: 100808, 25 g/bottle, Beijing Chemical Reagent Company equipment imported from Germany.
1.5.2 Influence on Autonomic Activity of Normal Mice
After observing the general behavior, in 1 h, 2 h and 24 h after drug administration, respectively, ZIL-2 mice autonomic activity meter is put respectively. Number of autonomic activities of each group of mice is measured within 10 min. Results among groups are compared.
as §4

[4] = test drug 25 mg/kg intragastric single dose
[5] = test drug 50 mg/kg intragastric single dose
[6] = test drug 100 mg/kg intragastric single dose
[7] = 25 mg/kg intragastric single dose
[8] = 50 mg/kg intragastric single dose
[9] = 100 mg/kg intragastric single dose

| SMILES | Number of sleeping animals (Kunming mice [1]; [4]) | rate of sleeping (%) (Kunming mice [1]; [4]) | Number of sleeping animals (Kunming mice [1]; [5]) | rate of sleeping (%) (Kunming mice [1]; [5]) | Number of sleeping animals (Kunming mice [1]; [6]) | rate of sleeping (%) (Kunming mice [1]; [6]) | duration of sleep (Kunming mice [2]; [7]) [min] | time to sleep (Kunming mice [2]; [7]) [min] | duration of sleep (Kunming mice [2]; [8]) [min] | time to sleep (Kunming mice [2]; [8]) [min] | duration of sleep (Kunming mice [2]; [9]) [min] | time to sleep (Kunming mice [2]; [9]) [min] | Times of activities in 1 h after drug administration/10 min (Kunming mice [3]; 25 mg/kg) | Times of activities in 2 h after drug administration/10 min (Kunming mice [3]; 25 mg/kg) | Times of activities in 24 h after drug administration/10 min (Kunming mice [3]; 25 mg/kg) | Times of activities in 1 h after drug administration/10 min (Kunming mice [3]; 50 mg/kg) | Times of activities in 2 h after drug administration/10 min (Kunming mice [3]; 50 mg/kg) | Times of activities in 24 h after drug administration/10 min (Kunming mice [3]; 50 mg/kg) | Times of activities in 1 h after drug administration/10 min (Kunming mice [3]; 100 mg/kg) | Times of activities in 2 h after drug administration/10 min (Kunming mice [3]; 100 mg/kg) | other results |
| --- | --- | --- | --- | --- | --- | --- | --- | --- | --- | --- | --- | --- | --- | --- | --- | --- | --- | --- | --- | --- | --- |
| CCCCCc1cc(-c2cc(=O)c3c(CC)cc(CCCCCCl)cc3o2)cc(O)c1Cc1ccccc1 [Example 19] | 3 | 30% | 6 | 60** % | 7 | 70** % | 30.63 ± 20.25 | 4.95 ± 2.00 | 37.67 ± 13.45 | 4.57 ± 1.65 | 52.65 ± 20.15 | 3.94 ± 1.23 | 282.2 ± 46.5 /10 min | 265.0 ± 45.3 /10 min | 302.8 ± 83.2 /10 min | 234.7 ± 40.1 /10 min | 243.5 ± 48.3 /10 min | 306.2 ± 81.3 /10 min | 229.6 ± 34.8 /10 min | 172.5 ± 39.2 /10 min | Times of activities in 24 h after drug administration/10 min (Kunming mice [3]; 100 mg/kg): 287.8 ± 89.1 /10 min |
| COc1ccc(-c2oc3c(OC)c(OC)c(OC)c(OC)c3c(=O)c2OC)cc1OC [Example 41, 3,5,6,7,8,3′,4′-heptamethoxyl-flavone] | 4 | 40* % | 6 | 60** % | 8 | 80*** % | 22.16 ± 16.23 | 5.33 ± 2.25 | 28.34 ± 17.13 | 5.12 ± 2.09 | 65.44 ± 37.54 | 3.16 ± 1.23 | 285.2 ± 44.1 /10 min | 266.0 ± 40.6 /10 min | 307.2 ± 69.7 /10 min | 260.4 ± 37.9 /10 min | 245.5 ± 28.1 /10 min | 306.2 ± 81.3 /10 min | 198.6 ± 58.8 /10 min | 171.5 ± 56.7 /10 min | Times of activities in 24 h after drug administration/10 min (Kunming mice [3]; 100 mg/kg): 291.5 ± 70.0 /10 min |
| O=c1cc(-c2cc(O)c(Oc3ccccc3)c(CCCCCCCCCCCCCCCCCCCCCl)c2)oc2cc(C#Cc3ccccc3)cc([N+](=O)[O-])c12 [Example 16] | 2 | 20% | 4 | 40* % | 6 | 60** % | 25.69 ± 27.26 | 5.48 ± 2.25 | 48.11 ± 25.41 | 4.21 ± 1.53 | 55.62 ± 19.72 | 3.86 ± 1.45 | 319.2 ± 55.4 /10 min | 290.6 ± 41.2 /10 min | 313.5 ± 68.2 /10 min | 295.5 ± 41.3 /10 min | 250.4 ± 41.4 /10 min | 314.1 ± 82.3 /10 min | 273.4 ± 48.3 /10 min | 224.7 ± 46.3 /10 min | Times of activities in 24 h after drug administration/10 min (Kunming mice [3]; 100 mg/kg): 324.7 ± 79.7 /10 min |
| COc1ccc(-c2cc(=O)c3cc(OC)c(OC)c(OC)c3o2)cc1OC [Example 27] | 5 | 50** % | 6 | 60** % | 7 | 70** % | 31.32 ± 22.99 | 4.88 ± 1.89 | 60.34 ± 16.90 | 4.15 ± 1.65 | 62.15 ± 33.37 | 3.73 ± 1.47 | 291.3 ± 52.1 /10 min | 282.2 ± 41.5 /10 min | 293.6 ± 82.9 /10 min | 169.6 ± 51.3 /10 min | 193.2 ± 56.4 /10 min | 295.7 ± 92.3 /10 min | 124.2 ± 39.4 /10 min | 138.9 ± 48.9 /10 min | Times of activities in 24 h after drug administration/10 min (Kunming mice [3]; 100 mg/kg): 278.6 ± 92.7 /10 min |
